Tested on: MC38 colon carcinoma
Experiment: Subcutaneous MC38 colon carcinoma model, avelumab, anti-4-1BB and anti-M-CSF (Example 5)
Format: in vivo, mouse
Conditions: anti-4-1BB 1 mg/kg, anti-M-CSF 15 mg/kg, Avelumab 10 mg/kg, ip, 3 doses 3 to 4 days apart, C57BL/6 mice
Description: Six (6)- to 8-week old female C57BL/6 mice were purchased from the Jackson Laboratories. All animals were housed in a pathogen free vivarium facility at Rinat and experiments were conducted according to the protocols in accordance with the Institutional Animal Care and Use Committee (IACUC) guidelines.
The MC38 colon carcinoma cell line was kindly provided by Dr. Antoni Ribas at University of California, Los Angeles, Calif. Cells were cultured in Dulbecco's Modified Eagle's Medium (DMEM) supplemented with 10% fetal bovine serum (FBS), 2 mM L glutamine at 37° C. in 5% carbon dioxide (CO2), and IMPACT-tested for pathogens at Research Animal Diagnostic Laboratory (RADIL) (Columbia, Mo.). Pathogen-free cells growing in an exponential growth phase were harvested and used for tumor inoculation.
Therapeutic mouse anti-mouse 4-1BB mAb (mouse immunoglobulin G1 [mIgG1]), derived from the parental clone MAB9371 (R&D Systems), was prepared in-house. Avelumab was provided by Merck Serono. Rat anti-mouse M-CSF (clone 5A1), rat IgG1 (clone HRPN) and mIgG1 (clone: MOPC-21) isotype controls were purchased from BioXcell. Human IgG1 isotype was prepared in-house. Anti-4-1BB, avelumab and anti-M-CSF mAbs were diluted to concentrations of 0.1 mg/mL and 1 mg/mL, and 1.5 mg/mL, respectively, in phosphate buffered saline (PBS) (Life Technologies), and dosed at 0.2 mL per mouse intraperitoneally (ip) for 3 doses 3 to 4 days apart.
C57BL/6 mice were inoculated subcutaneously at the right flank with 0.5-1×10^6 MC38 cells in 0.1 mL of DMEM. When tumors reached an average of ˜60 mm^3 (range 41-93 mm^3), mice were randomized into groups of 10 animals per group, and treatment was started at the same day. Tumor size was measured in two dimensions using a caliper, and the volume was expressed in mm^3 using the formula: V=0.5 L×W^2 where L and W are the long and short diameters of the tumor, respectively. Body weight was recorded weekly.
Results were expressed as mean±SEM (Table 8). Statistical analyses were performed using GraphPad Prism 6.0. One-way or two-way ANOVA was applied to compare the statistical differences among multiple groups relative to isotype controls. P<0.05 was considered as significant difference.

## Avelumab: fully human mAb of the IgG1 isotype that specifically targets and blocks PD-L1
Day 7 post-tumor inoculation (start of treatment)
  Mean Tumor Size: 63 mm^3
Day 10 post-tumor inoculation
  Mean Tumor Size: 127 mm^3
Day 14 post-tumor inoculation
  Mean Tumor Size: 254 mm^3
Day 16 post-tumor inoculation
  Mean Tumor Size: 384 mm^3
Day 18 post-tumor inoculation
  Mean Tumor Size: 523 mm^3
Day 21 post-tumor inoculation
  Mean Tumor Size: 714 mm^3
Day 23 post-tumor inoculation
  Mean Tumor Size: 901 mm^3

From patent US10869924B2, “PD-L1 antagonist combination treatments” (MERCK PATENT GMBH, priority 2015, dated 2020)
